Test results published in the PolyMetriX glass transition set.
± gives the standard deviation of the reports.

| Structure (SMILES) | glass transition temperature [°C] |
| --- | --- |
| *c1ccc(Oc2ccc(C(=O)c3ccc(C(=O)c4ccc(Oc5ccc(N6C(=O)c7ccc(-c8ccc9c(c8)C(=O)N(*)C9=O)cc7C6=O)cc5)cc4)cc3)cc2)cc1 (repeat unit) | 245.00 |
| *c1ccc(Oc2ccc(C3(c4ccc(Oc5ccc(N6C(=O)c7ccc(Oc8ccc(C9(c%10ccc(Oc%11ccc%12c(c%11)C(=O)N(*)C%12=O)cc%10)CCC(c%10ccccc%10)CC9)cc8)cc7C6=O)cc5)cc4)CC4CCC3C4)cc2)cc1 (repeat unit) | 245.00 |
| *c1cc(CCCCCC)c(*)s1 (repeat unit) | 15.2 ± 7.3 |
| *CCCCCCCCCCCCOC(=O)Nc1ccc(Cc2ccc(NC(=O)O*)cc2)cc1 (repeat unit) | 43.00 |
| *CC(O)CN(C)S(=O)(=O)c1cccc(S(=O)(=O)N(C)CC(O)COc2ccc(S(=O)(=O)c3ccc(O*)cc3)cc2)c1 (repeat unit) | 100.00 |
| *Oc1ccc(S(=O)(=O)c2ccc3cc(S(=O)(=O)c4ccc(Oc5ccc(-c6ccc(*)cc6)cc5)cc4)ccc3c2)cc1 (repeat unit) | 255.00 |
| *CC(*)OC(=O)C(C)(C)C(C)C(C)C (repeat unit) | 55.00 |
| *CC(*)c1ccccc1C(=O)N(C)C (repeat unit) | 190.00 |
| *c1ccc(Oc2ccc(C(=O)c3ccc(Oc4ccc(-c5c6c(c(*)c7ccccc57)C(=O)N(c5ccccc5)C6=O)cc4)cc3)cc2)cc1 (repeat unit) | 273.50 |
| *C1CCCC(S(*)(=O)=O)C1 (repeat unit) | 108.00 |
| *CCN* (repeat unit) [poly(2-oxazoline)s] | -35.77 ± 17 |
| *Nc1cc([N+](=O)[O-])c(NC(=O)CCCCCCCCCCCCC(*)=O)cc1/C=C/c1ccc(N(C)C)cc1 (repeat unit) | 125.00 |
| *c1ccc(OCCCCCCCCCCCCCCCC)c(N2C(=O)CC(C3C=C(C)C4C(=O)N(*)C(=O)C4C3)C2=O)c1 (repeat unit) | 186.00 |
| *CC(*)(C)C(=O)OCCCCc1ccc(/N=N/c2ccc(OC(F)(F)F)cc2)cc1 (repeat unit) | 203.50 |
| *Oc1ccc(C(=O)c2ccc(Oc3ccc(C(=O)c4cccc(C(=O)c5ccc(*)cc5)c4)cc3)cc2)cc1 (repeat unit) | 152.00 |
| *C([2H])([2H])C(*)([2H])C([2H])([2H])[2H] (repeat unit) | 0.00 |

| Structure (SMILES) | glass transition temperature [°C] |
| --- | --- |
| *CC(*)c1ccc(-c2ccccc2)cc1 (repeat unit) [Poly(p-phenyl styrene) ] | 138 ± 14 |
| *c1ccc(-c2ccc(-c3cc(-c4ccc(Oc5ccc(-c6ccccc6)cc5)cc4)c4cc(-c5ccc6nc(*)cc(-c7ccc(Oc8ccc(-c9ccccc9)cc8)cc7)c6c5)ccc4n3)cc2)cc1 (repeat unit) | 364.00 |
| *Oc1ccc(NC(=O)c2ccc(S(=O)(=O)c3ccc(C(=O)Nc4ccc(Oc5ccc(C6(c7ccc(*)cc7)C7CC8CC(C7)CC6C8)cc5)cc4)cc3)cc2)cc1 (repeat unit) | 252.00 |
| *Oc1ccc(C(C)(C)c2ccc(OC3(F)C(*)(F)C(F)(F)C3(F)F)cc2)cc1 (repeat unit) | 98.00 |
| *N=P(N=P(N=S(*)(=O)NCCC)(NCCC)NCCC)(NCCC)NCCC (repeat unit) | 6.00 |
| *SC(*)(F)F (repeat unit) | -118.00 |
| *Oc1ccc(C(=O)c2ccc(Oc3ccc(C(=O)c4ccc(Oc5ccc(Cc6ccc(*)cc6)cc5)cc4)cc3)cc2)cc1 (repeat unit) | 128.00 |
| *Oc1ccc(C2(c3ccc(Oc4ccc(-c5ccc(-c6ccc(*)c(C(F)(F)F)c6)cc5)cc4C(F)(F)F)cc3)c3ccccc3-c3ccccc32)cc1 (repeat unit) | 237.00 |
| *CC(*)c1cc(C)cc(C)c1 (repeat unit) | 112.00 |
| */C=C(/*)c1c(F)c(F)c(CCCC)c(F)c1F (repeat unit) | 110.00 |
| */C=C/C1CC(*)C(C(=O)Oc2ccccc2)C1C(=O)Oc1ccccc1 (repeat unit) | 96.50 |
| *Oc1ccc(-c2ccc(Oc3ccc(C(=O)c4c(C(=O)c5ccc(*)cc5)c(-c5ccc(F)cc5)c(-c5ccc(F)cc5)c(-c5ccc(F)cc5)c4-c4ccc(F)cc4)cc3)cc2)cc1 (repeat unit) | 275.00 |
| *c1ccc(C(=O)OCCCCCCOc2ccc(/C=C3\CCCC/C(=C\c4ccc(OCCCCCCOC(=O)c5ccc(-c6nnc(*)o6)cc5)cc4)C3=O)cc2)cc1 (repeat unit) | 104.00 |
| *c1ccc(Oc2ccc(C(=O)c3ccc(C(=O)c4ccc(Oc5ccc(-c6cc(*)n(-c7ccccc7)n6)cc5)cc4)cc3)cc2)cc1 (repeat unit) | 205.00 |
| *CCCCCCCCNC(=O)CCCCCCCCCCCCCCCCCCCCC(=O)N* (repeat unit) | 48.00 |

Results, then the molecule that gave them:

| glass transition temperature [°C] | Structure (SMILES) |
| --- | --- |
| 128.00 | *NC1CC(C)(C)CC(C)(CNC(=O)c2cc(NC(=O)C(C(C)CC)N3C(=O)c4ccccc4C3=O)cc(C(*)=O)c2)C1 (repeat unit) |
| 308.00 | *Nc1ccc(NC(=O)c2cc(C(*)=O)cc(S(=O)(=O)c3ccccc3)c2)cc1 (repeat unit) |
| 327.00 | *c1ccc(NC(=O)c2cc(C(=O)Nc3ccc(-c4nnc(*)o4)cc3)cc(N3C(=O)c4ccccc4C3=O)c2)cc1 (repeat unit) |
| 219.00 | *c1cccc(Oc2cccc(Oc3cccc(N4C(=O)c5ccc(Oc6ccc7c(c6)C(=O)N(*)C7=O)cc5C4=O)c3)c2C#N)c1 (repeat unit) |
| 158.00 | *CC(*)(CC(=O)OC(C)C)C(=O)OC12CC3CC(C)(CC(C)(C3)C1)C2 (repeat unit) |
| 270.00 | *C(=O)Nc1ccc(Cc2ccc(NC(=O)c3ccc4c(c3)C(=O)N(c3ccc(Oc5ccc(N6C(=O)c7ccc(*)cc7C6=O)cc5)cc3)C4=O)cc2)cc1 (repeat unit) |
| 114.50 | *Oc1ccc(Oc2ccc(OC(=O)NC(=O)c3cc(C(=O)NC(*)=O)cc(C(C)(C)C)c3)cc2)cc1 (repeat unit) |
| 46.00 | *CC(*)C(=O)OCCOc1ccc(C(=O)Oc2ccc(OC(=O)c3ccc(OCCCCC)cc3)cc2)cc1 (repeat unit) |
| 40.00 | *Oc1ccc(CC(NC(=O)CCc2ccc(OC(=O)COCC(*)=O)cc2)C(=O)OCCCCCCCC)cc1 (repeat unit) |
| 200.00 | *C(=O)c1ccc2c(c1)C(=O)N(c1ccc(OCCOCCOCCOc3ccc(N4C(=O)c5ccc(*)cc5C4=O)cc3)cc1)C2=O (repeat unit) |
| 51.00 | *Oc1ccc(CC(NC(=O)Cc2ccc(OC(=O)COCC(*)=O)cc2)C(=O)OCCCCCCCC)cc1 (repeat unit) |
| 198.00 | *CCCCCCN1C(=O)c2ccc(C(=O)Nc3ccc(S(=O)(=O)c4ccc(NC(=O)c5ccc6c(c5)C(=O)N(*)C6=O)cc4)cc3)cc2C1=O (repeat unit) |
| 43.00 | *Oc1ccc(CC(NC(=O)Cc2ccc(OC(=O)CCCCCCCCC(*)=O)cc2)C(=O)OCC)cc1 (repeat unit) |
| 242.00 | *c1ccc(Oc2ccc(Oc3ccc(NC(=O)c4ccc(Oc5ccc6c(c5)C(=O)N(*)C6=O)cc4)cc3)cc2)cc1 (repeat unit) |
